{
  "source": "patent US20090156609A1",
  "about": "“TREATMENT OF POST-TRAUMATIC STRESS DISORDER WITH TETRAHYDROINDOLONE ARYLPIPERZAINE COMPOUNDS” (priority 2007, published 2009)",
  "key": {"C-57 mice": {"tested_on": "C-57 mice", "experiment": "Conditioned avoidance response (CAR) model", "format": "in vivo", "settings": "models unwanted side effects", "description": "The Condition Avoidance Responding (CAR, active avoidance) model is a measure of cognitive and attention impairment. It evaluates the disruption of avoidance (increased latency) without disruption of escape (extrapyramidal motor function).\nThe training of C-57 mice consists of 20 trials with variable inter-trial intervals (trained to 80% Avoidance Criteria). After a one-minute acclimation period, the house light and an acoustic 90 decibel tone (conditioned stimuli) are presented. A response (crossing to dark compartment) within 5 seconds ends the trial and trial is recorded as avoidance response (CAR). […] To avoid shock, animals learn to move from the lighted side of the − chamber to the dark side when the cue is presented (avoidance) or moved when the shock is administered (escape). Compounds that disrupt cognition in the CAR model can be excluded from candidate consideration.\n(§1) The present compounds were tested in the conditioned avoidance response (CAR) model and in the Spontaneous Activity model described above."}, "mice": {"tested_on": "mice", "experiment": "Spontaneous Activity model (locomotor activity)", "format": "in vivo", "settings": "models unwanted side effects", "description": "Ambulatory and non-ambulatory activity can be used to test spontaneous and drug-induced motor activity. The test can be used to profile the potential for a drug to induce hyperactivity or sedation.\nIn this model, Kinder Scientific photobeam activity monitors are used to record the ambulatory and non-ambulatory motor activity. The monitors track the photobeam breaks made by the animal that are used to calculate the number of ambulatory and fine (non-ambulatory) motor movements. A drug-induced increase in activity can indicate the potential for an adverse event such as hyperactivity. A drug-induced decrease in response can indicate the potential for an adverse event such as sedation. Doses at which no significant change in activity are recorded, and more preferably at which no change in activity are recorded, can be selected for further evaluation.\nas §1"}, "Male C57 mice": {"tested_on": "Male C57 mice", "experiment": "PCP-induced disruption of prepulse inhibition (PPI) of the startle response", "format": "in vivo", "settings": "for minimal effective dose: Mus musculus, 20 minutes prior to PCP 5 mg/kg IP, read-out: Effective Dose, Prepulse Inhibition Testing; for minimum effective dose, Prepulse Inhibition (PPI): reversal of PCP-induced disruption, route not given", "description": "The phencyclidine (PCP)-induced disruption of pre-pulse inhibition (PPI) has been used to predict efficacy in cognitive impairment and other disorders. In this test, a weaker auditory prestimulus (prepulse) inhibits the reaction of an test organism to a subsequent strong startle stimulus (pulse). Normal PPI functioning in mammals is critical in filtering out irrelevant sensory information, an inhibitory process that is affected in patients with PTSD. A reduction of the cognitive/attention impairment produced in the PPI model can be used as an efficacy measure for compound candidate selection.\nFor testing of PPI, male C57 mice can be assigned to five dose groups of eight animals per group, and vehicle or test compound can then be administered orally (PO) or subcutaneously (SC) 20 minutes prior to intraperitoneal (IP) administration of vehicle or PCP (5 mg/kg). Ten minutes following PCP administration, the mice are placed into Hamilton-Kinder startle chambers and evaluation of pre-pulse inhibition procedure is performed. Following a five-minute acclimatization period with background white noise (65 decibels), mice were exposed to five different trial types. Trials were presented […] in a quasi-random order, with randomized 5 to 25 second inter-trial intervals. Trials were: stimulus only trial (120 decibel white noise, 50 ms stimulus); two different prepulse+pulse trials in which a 20 ms 5 decibel, or 10 decibel stimuli above a 65 decibel background preceded the 120 decibel pulse by 120 ms; a 10 decibel prepulse without a 120 decibel pulse; and a no stimulus trial, in which only the background noise was presented.\nCompounds which are observed to reduce and/or reverse PCP-induced impairment can be selected as candidates for further evaluation. Such reduction is also indicative of memory enhancement, which is also a positive indicator for further development.\nMale C57 mice were assigned to five dose groups of eight animals per group, and vehicle or a test compound was administered orally or subcutaneously 20 minutes prior to intraperitoneal administration of vehicle or PCP (5 mg/kg). Ten minutes following PCP administration, the mice were placed into Kinder Scientific startle chambers (Kinder Scientific, Poway, Calif.) and pre-pulse inhibition was evaluated. Following a five-minute acclimatization period with background white noise (65 dB), mice were exposed to five different trial types. Trials were presented in a quasi-random order, with randomized 5 to 25 second inter-trial intervals. The five different trials (presented 10 times each were): stimulus only trial (120 dB white noise, 50 ms stimulus); two different prepulse+pulse trials in which a 20 ms 5 dB or 10 dB stimulus above a 65 dB background preceded the 120 dB pulse by 120 ms; a 10 dB prepulse without a 120 dB pulse; and a no stimulus trial, in which only the background noise was presented."}, "patients": {"tested_on": "patients", "settings": "placebo 37 percent, cited from earlier work"}},
  "note": "Where two headings read alike, the source gives them in different places.",
  "data": [
    {"smiles": "O=C1CCCc2c1ccn2CCCCN1CCN(c2ccc(F)cc2)CC1", "note": "[Compound B, 1-{4-[4-(4-Fluorophenyl)piperazin-1-yl]butyl}-1,5,6,7-tetrahydroindol-4-one]", "values": [
      {"measurement": "minimum effective dose, Conditioned Avoidance Response", "setting": "C-57 mice", "result": ">3", "unit": "mg/kg"},
      {"measurement": "minimum effective dose, Locomotor Activity", "setting": "mice", "result": 3, "unit": "mg/kg"},
      {"measurement": "minimal effective dose", "setting": "Male C57 mice; sc, subcutaneous", "result": 1, "unit": "mg/kg"},
      {"measurement": "minimum effective dose, Prepulse Inhibition (PPI)", "setting": "Male C57 mice", "result": 1, "unit": "mg/kg"}
    ]},
    {"smiles": "O=C1CCCc2c1ccn2CCCCN1CCN(c2ccc(Br)cc2)CC1", "note": "[Compound C, 1-{4-[4-(4-Bromophenyl)piperazin-1-yl]butyl}-1,5,6,7-tetrahydroindol-4-one]", "values": [
      {"measurement": "minimum effective dose, Conditioned Avoidance Response", "setting": "C-57 mice", "result": ">10", "unit": "mg/kg"},
      {"measurement": "minimum effective dose, Locomotor Activity", "setting": "mice", "result": ">10", "unit": "mg/kg"},
      {"measurement": "minimal effective dose", "setting": "Male C57 mice; sc, subcutaneous", "result": 3, "unit": "mg/kg"},
      {"measurement": "minimum effective dose, Prepulse Inhibition (PPI)", "setting": "Male C57 mice", "result": 3, "unit": "mg/kg"}
    ]},
    {"smiles": "O=C1CCCc2c1ccn2CCCCN1CCN(c2cccc(C(F)(F)F)c2)CC1", "note": "[Compound D, 1-{4-[4-(3-Trifluoromethylphenyl)piperazin-1-yl]butyl}-1,5,6,7-tetrahydroindol-4-one]", "values": [
      {"measurement": "minimum effective dose, Conditioned Avoidance Response", "setting": "C-57 mice", "result": 3, "unit": "mg/kg"},
      {"measurement": "minimum effective dose, Locomotor Activity", "setting": "mice", "result": 3, "unit": "mg/kg"},
      {"measurement": "minimal effective dose", "setting": "Male C57 mice; sc, subcutaneous", "result": 0.3, "unit": "mg/kg"},
      {"measurement": "minimal effective dose", "setting": "Male C57 mice; oral", "result": 1, "unit": "mg/kg"},
      {"measurement": "minimum effective dose, Prepulse Inhibition (PPI)", "setting": "Male C57 mice", "result": 0.3, "unit": "mg/kg"}
    ]},
    {"smiles": "O=C1CCCc2c1ccn2CCN1CCN(c2cccc(C(F)(F)F)c2)CC1", "note": "[Compound E, 1-{2-[4-(3-Trifluoromethylphenyl)piperazin-1-yl]ethyl}-1,5,6,7-tetrahydroindol-4-one]", "values": [
      {"measurement": "minimum effective dose, Conditioned Avoidance Response", "setting": "C-57 mice", "result": ">10", "unit": "mg/kg"},
      {"measurement": "minimum effective dose, Locomotor Activity", "setting": "mice", "result": ">10", "unit": "mg/kg"},
      {"measurement": "minimum effective dose, Prepulse Inhibition (PPI)", "setting": "Male C57 mice", "result": 3, "unit": "mg/kg"}
    ]},
    {"smiles": "O=C1CCCc2c1ccn2CCCN1CCN(c2cccc(Cl)c2)CC1", "note": "[Compound F, 1-{3-[4-(3-Chlorophenyl)piperazin-1-yl]propyl}-1,5,6,7-tetrahydroindol-4-one]", "values": [
      {"measurement": "minimum effective dose, Conditioned Avoidance Response", "setting": "C-57 mice", "result": ">10", "unit": "mg/kg"},
      {"measurement": "minimum effective dose, Locomotor Activity", "setting": "mice", "result": ">3", "unit": "mg/kg"},
      {"measurement": "minimum effective dose, Prepulse Inhibition (PPI)", "setting": "Male C57 mice", "result": 3, "unit": "mg/kg"}
    ]},
    {"smiles": "O=C1CCCc2c1ccn2CCCN1CCN(c2cccc(C(F)(F)F)c2)CC1", "note": "[Compound G, 1-{3-[4-(3-Trifluoromethylphenyl)piperazin-1-yl]propyl}-1,5,6,7-tetrahydroindol-4-one]", "values": [
      {"measurement": "minimum effective dose, Conditioned Avoidance Response", "setting": "C-57 mice", "result": ">10", "unit": "mg/kg"},
      {"measurement": "minimum effective dose, Locomotor Activity", "setting": "mice", "result": ">10", "unit": "mg/kg"},
      {"measurement": "minimum effective dose, Prepulse Inhibition (PPI)", "setting": "Male C57 mice", "result": 3, "unit": "mg/kg"}
    ]},
    {"smiles": "O=C1CCCc2c1ccn2CCCCN1CCN(c2ccc(Cl)c(Cl)c2)CC1", "note": "[Compound H, 1-{4-[4-(3,4-dichlorophenyl)piperazin-1-yl]butyl}-1,5,6,7-tetrahydroindol-4-one]", "values": [
      {"measurement": "minimal effective dose", "setting": "Male C57 mice; sc, subcutaneous", "result": 1, "unit": "mg/kg"},
      {"measurement": "minimal effective dose", "setting": "Male C57 mice; oral", "result": 6, "unit": "mg/kg"}
    ]},
    {"smiles": "O=C1CCCc2c1ccn2CCCCN1CCN(c2ccc(F)c(Cl)c2)CC1", "note": "[Compound I, 1-{4-[4-(3-Chloro-4-fluorophenyl)piperazin-1-yl]butyl}-1,5,6,7-tetrahydroindol-4-one]", "values": [
      {"measurement": "minimal effective dose", "setting": "Male C57 mice; sc, subcutaneous", "result": 1, "unit": "mg/kg"}
    ]},
    {"smiles": "O=C1CCCc2c1ccn2CCCCN1CCN(c2ccc(Cl)cc2Cl)CC1", "note": "[Compound J, 1-{4-[4-(2,4-Dichlorophenyl)piperazin-1-yl]butyl}-1,5,6,7-tetrahydroindol-4-one]", "values": [
      {"measurement": "minimal effective dose", "setting": "Male C57 mice; sc, subcutaneous", "result": 10, "unit": "mg/kg"}
    ]},
    {"smiles": "O=C1CCCc2c1ccn2CCCN1CCN(c2ccc(Cl)c(Cl)c2)CC1", "note": "[Compound K, 1-{3-[4-(3,4-Dichlorophenyl)piperazin-1-yl]propyl}-1,5,6,7-tetrahydroindol-4-one]", "values": [
      {"measurement": "minimal effective dose", "setting": "Male C57 mice; sc, subcutaneous", "result": 10, "unit": "mg/kg"}
    ]},
    {"smiles": "Fc1ccc([C@@H]2CCNC[C@H]2COc2ccc3c(c2)OCO3)cc1", "note": "[paroxetine, Paroxetine]", "values": [
      {"measurement": "patients who responded positively", "setting": "patients; 20 mg paroxetine", "result": 62, "unit": "%"},
      {"measurement": "patients who responded positively", "setting": "patients; 40 mg paroxetine", "result": 54, "unit": "%"}
    ]}
  ]
}
